The test addresses T1, 11β-HSD1 (Homo sapiens, UniProt P28845).
T1 construct: detecting cortisol generated from cortisterone by human liver microsomes; from tissue; host or cells: human liver microsomes
Kind of test: In vitro inhibition of 11β-HSD1, HTRF detection of cortisol generated from cortisone by human liver microsomes. It is filed as biochemical. To be noted: 11β-HSD IC50 (nM), 1 hour at 37° C., pH 6.0, NADPH 200 μM, cortisone 80 nM, inhibition relative to carbenoxolone signal. In short, it runs like this:
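Inhibition expressed against the carbenoxolone signal and fitted to IC50 curves. Readout: HTRF competition between microsomal cortisol and XL665-labelled cortisol for Eu-cryptate anti-cortisol antibody (typically 2 h), with emission ratio 665/615 calibrated to cortisol concentration.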
For orientation: TR-FRET usually uses a lanthanide donor and a delayed reading to cut background.

The structures appear in SMILES notation.

In general, IC50 refers to the point on the concentration scale where inhibition reaches its midpoint. Lower therefore signals greater potency.

T1 sequence (P28845 whole entry): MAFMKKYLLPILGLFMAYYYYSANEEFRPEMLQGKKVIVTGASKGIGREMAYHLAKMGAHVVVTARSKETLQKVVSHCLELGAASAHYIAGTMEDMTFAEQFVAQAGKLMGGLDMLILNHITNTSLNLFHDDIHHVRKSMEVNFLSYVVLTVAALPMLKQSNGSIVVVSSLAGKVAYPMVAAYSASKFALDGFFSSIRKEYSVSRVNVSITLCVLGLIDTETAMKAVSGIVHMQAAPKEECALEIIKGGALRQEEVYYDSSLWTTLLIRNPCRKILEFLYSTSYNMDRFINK

As to `CC1CN(Cc2ccc(C(=O)N3CC[C@@]4(C)c5cccc(O)c5C[C@@H]3C4(C)C)cc2)CC(C)O1` (stereo partly drawn) [Example 184, [4-(2,6-Dimethyl-morpholin-4-ylmethyl)-phenyl]-[(2R,6S)-10-hydroxy-6,11,11-trimethyl-1,2,5,6-tetrahydro-4H-2,6-methano-benzo[d]azocin-3-yl]-methanone], inhibition was half-maximal at 1150 nM (IC50).
`CC1(O)CCN(Cc2ccc(C(=O)N3CC[C@@]4(C)c5cccc(O)c5C[C@@H]3C4(C)C)cc2)CC1` [Example 185, [4-(4-Hydroxy-4-methyl-piperidin-1-ylmethyl)-phenyl]-[(2R,6S)-10-hydroxy-6,11,11-trimethyl-1,2,5,6-tetrahydro-4H-2,6 methano-benzo[d]azocin-3-yl]-methanone] came in with an IC50 of 5370 nM.
In turn, `CC1(C)[C@H]2Cc3c(O)cccc3[C@]1(C)CCN2C(=O)c1ccc(CN2CC(O)C2)cc1` [Example 187, [4-(3-Hydroxy-azetidin-1-ylmethyl)-phenyl]-[(2R,6S)-10-hydroxy-6,11,11-trimethyl-1,2,5,6-tetrahydro-4H-2,6-methano-benzo[d]azocin-3-yl]-methanone] registered an IC50 of 1960 nM.
The value for `CC1(C)[C@H]2Cc3c(O)cccc3[C@]1(C)CCN2C(=O)c1ccc(CN2CCC(O)C2)cc1` (stereo partly drawn) [Example 188, [4-(3-Hydroxy-pyrrolidin-1-ylmethyl)-phenyl]-[(2R,6S)-10-hydroxy-6,11,11-trimethyl-1,2,5,6-tetrahydro-4H-2,6-methano-benzo[d]azocin-3-yl]-methanone] was 2920 nM; that for `COC1CCN(Cc2ccc(C(=O)N3CC[C@@]4(C)c5cccc(O)c5C[C@@H]3C4(C)C)cc2)CC1` [Example 189, [(2R,6S)-10-Hydroxy-6,11,11-trimethyl-1,2,5,6-tetrahydro-4H-2,6-methano-benzo[d]azocin-3-yl]-[4-(4-methoxy-piperidin-1-ylmethyl)-phenyl]-methanone] was 2270 nM.
The value for `CC1(C)[C@H]2Cc3c(O)cccc3[C@]1(C)CCN2C(=O)c1ccc(CN2CCC(O)CC2)cc1` [Example 190, [4-(4-Hydroxy-piperidin-1-ylmethyl)-phenyl]-[(2R,6S)-10-hydroxy-6,11,11-trimethyl-1,2,5,6-tetrahydro-4H-2,6-methano-benzo[d]azocin-3-yl]-methanone] was 1650 nM; that for `CC1(C)[C@H]2Cc3c(ccc4[nH]cnc34)[C@]1(C)CCN2C(=O)c1ccc2nc[nH]c2c1` [Example 191, (3H-Benzoimidazol-5-yl)-[(5R,9S)-4,5,6,7,8,9-hexahydro-2,10,12,12-trimethyl-5,9-methano-1H-imidazo[5,4-j][3]benzazocin-6-yl]-methanone] was 571 nM; that for `CC1(C)[C@H]2Cc3c(O)cccc3[C@]1(C)CCN2C(=O)c1n[nH]c2ccccc12` [Example 192, [(2R,6S)-10-Hydroxy-6,11,11-trimethyl-1,2,5,6-tetrahydro-4H-2,6-methano-benzo[d]azocin-3-yl]-(1H-indazol-3-yl)-methanone] was 434 nM.
For `CC1(C)[C@H]2Cc3c(O)cccc3[C@]1(C)CCN2C(=O)c1c[nH]c2ccc(F)cc12` [Example 193, (5-Fluoro-1H-indol-3-yl)-[(2R,6S)-10-hydroxy-6,11,11-trimethyl-1,2,5,6-tetrahydro-4H-2,6-methano-benzo[d]azocin-3-yl]-methanone] the value was 360 nM.
For the compound `Cn1nc(C(=O)N2CC[C@@]3(C)c4cccc(O)c4C[C@@H]2C3(C)C)c2ccccc21` [Example 194, [(2R,6S)-10-Hydroxy-6,11,11-trimethyl-1,2,5,6-tetrahydro-4H-2,6-methano-benzo[d]azocin-3-yl]-(1-methyl-1H-indazol-3-yl)-methanone], the IC50 is 642 nM.
For `COc1cccc2[nH]cc(C(=O)N3CC[C@@]4(C)c5cccc(O)c5C[C@@H]3C4(C)C)c12` [Example 195, [(2R,6S)-10-Hydroxy-6,11,11-trimethyl-1,2,5,6-tetrahydro-4H-2,6-methano-benzo[d]azocin-3-yl]-(4-methoxy-1H-indol-3-yl)-methanone] the value was 2480 nM; for `CC1(C)[C@H]2Cc3c(O)cccc3[C@]1(C)CCN2C(=O)c1c[nH]c2ccc(Cl)cc12` [Example 196, (5-Chloro-1H-indol-3-yl)-[(2R,6S)-10-hydroxy-6,11,11-trimethyl-1,2,5,6-tetrahydro-4H-2,6-methano-benzo[d]azocin-3-yl]-methanone], 781 nM.
The value for `Cc1[nH]c2ccccc2c1C(=O)N1CC[C@@]2(C)c3cccc(O)c3C[C@@H]1C2(C)C` [Example 197, [(2R,6S)-10-Hydroxy-6,11,11-trimethyl-1,2,5,6-tetrahydro-4H-2,6-methano-benzo[d]azocin-3-yl]-(2-methyl-1H-indol-3-yl)-methanone] was 3830 nM.
`CC1(C)[C@H]2Cc3c(O)cccc3[C@]1(C)CCN2C(=O)c1coc2ccccc12` [Example 198, Benzofuran-3-yl-[(2R,6S)-10-hydroxy-6,11,11-trimethyl-1,2,5,6-tetrahydro-4H-2,6-methano-benzo[d]azocin-3-yl]-methanone] yielded an IC50 of 435 nM.
`Cn1cc(C(=O)N2CC[C@@]3(C)c4cccc(O)c4C[C@@H]2C3(C)C)c2ccccc21` [Example 199, [(2R,6S)-10-Hydroxy-6,11,11-trimethyl-1,2,5,6-tetrahydro-4H-2,6-methano-benzo[d]azocin-3-yl]-(1-methyl-1H-indol-3-yl)-methanone] registered an IC50 of 137 nM.
For `CN(C)S(=O)(=O)c1ccc2c(c1)[C@]1(C)CCN(C(=O)c3ccc4nc[nH]c4c3)[C@H](C2)C1(C)C` [Example 201, (2R,6S)-3-(3H-Benzoimidazole-5-carbonyl)-6,11,11-trimethyl-1,2,3,4,5,6-hexahydro-2,6-methano-benzo[d]azocine-8-sulfonic acid dimethylamide] the value was 53 nM; for `CNS(=O)(=O)c1ccc2c(c1)[C@]1(C)CCN(C(=O)c3ccc4nc[nH]c4c3)[C@H](C2)C1(C)C` [Example 202, (2R,6S)-3-(3H-Benzoimidazole-5-carbonyl)-6,11,11-trimethyl-1,2,3,4,5,6-hexahydro-2,6-methano-benzo[d]azocine-8-sulfonic acid methylamide], 66 nM; for `CC1(C)[C@H]2Cc3ccc(S(N)(=O)=O)cc3[C@]1(C)CCN2C(=O)c1ccc2nc[nH]c2c1` [Example 203, (2R,6S)-3-(3H-Benzoimidazole-5-carbonyl)-6,11,11-trimethyl-1,2,3,4,5,6-hexahydro-2,6-methano-benzo[d]azocine-8-sulfonic acid amide], 125 nM.
Compound `CC(=O)c1ccc2c(c1)[C@]1(C)CCN(C(=O)c3ccc4nc[nH]c4c3)[C@H](C2)C1(C)C` [Example 204, 1-[(2R,6S)-3-(3H-Benzoimidazole-5-carbonyl)-6,11,11-trimethyl-1,2,3,4,5,6-hexahydro-2,6-methano-benzo[d]azocin-8-yl]-ethanone] yielded an IC50 of 27 nM.
The compound `CC(=O)c1ccc2c(c1)C[C@H]1N(C(=O)c3ccc4nc[nH]c4c3)CC[C@]2(C)C1(C)C` [Example 205, 1-[(2R,6S)-3-(3H-Benzoimidazole-5-carbonyl)-6,11,11-trimethyl-1,2,3,4,5,6-hexahydro-2,6-methano-benzo[d]azocin-9-ayl]-ethanone] displayed a half-inhibitory concentration (IC50) of 38 nM.
The value for `CC1(C)[C@H]2Cc3cc(C#N)ccc3[C@]1(C)CCN2C(=O)c1ccc2nc[nH]c2c1` [Example 206, (2R,6S)-3-(3H-Benzoimidazole-5-carbonyl)-6,11,11-trimethyl-1,2,3,4,5,6-hexahydro-2,6-methano-benzo[d]azocine-9-carbonitrile] was 47 nM; that for `CC1(C)[C@H]2Cc3c(O)cccc3[C@]1(C)CCN2C(=O)c1ccc(CN2CCOCC2=O)cc1` [Example 207, 4-[(2R,6S)-4-(10-Hydroxy-6,11,11-trimethyl 1,2,5,6-tetrahydro-4H-2,6-methano-benzo[d]azocine-3-carbonyl)-benzyl]-morpholin-3-one] was 224 nM.
The value for `CN(C(=O)c1ccc(C(=O)N2CC[C@@]3(C)c4cccc(O)c4C[C@@H]2C3(C)C)cc1)c1ccccc1` [Example 208, 4-[(2R,6S)-10-Hydroxy-6,11,11-trimethyl-1,2,5,6-tetrahydro-4H-2,6-methano-benzo[d]azocine-3-carbonyl]-N-methyl-N-phenyl-benzamide] was 238 nM; that for `CC(O)c1ccc2c(c1)C[C@H]1N(C(=O)c3ccc4nc[nH]c4c3)CC[C@]2(C)C1(C)C` (stereo partly drawn) [Example 209, (3H-Benzoimidazol-5-yl)-[(2R,6S)-9-(1-hydroxy-ethyl)-6,11,11-trimethyl-1,2,5,6-tetrahydro-4H-2,6-methano-benzo[d]azocin-3-yl]-methanone] was 40 nM; that for `Cc1cc2nc[nH]c2cc1C(=O)N1CC[C@@]2(C)c3cccc(O)c3C[C@@H]1C2(C)C` [Example 210, [(2R,6S)-10-Hydroxy-6,11,11-trimethyl-1,2,5,6-tetrahydro-4H-2,6-methano-benzo[d]azocin-3-yl]-(6-methyl-3H-benzoimidazol-5-yl)-methanone] was 68 nM.
Regarding `CC(O)c1ccc2c(c1)[C@]1(C)CCN(C(=O)c3ccc4nc[nH]c4c3)[C@H](C2)C1(C)C` (stereo partly drawn) [Example 211, (3H-Benzoimidazol-5-yl)-[(2R,6S)-8-(1-hydroxy-ethyl)-6,11,11-trimethyl-1,2,5,6-tetrahydro-4H-2,6-methano-benzo[d]azocin-3-yl]-methanone], the IC50 amounted to 31 nM.
For `COC(=O)C12CCN(C(=O)c3ccc4nc[nH]c4c3)C(Cc3ccc(O)cc31)C2` (stereo not shown) [Example 212, 3-(3H-Benzoimidazole-5-carbonyl)-8-hydroxy-2,3,4,5-tetrahydro-1H-2,6-methano-benzo[d]azocine-6-carboxylic acid methyl ester] the value was 1940 nM; for `O=C(c1ccc2nc[nH]c2c1)N1CCC2(C(=O)O)CC1Cc1ccc(O)cc12` (stereo not shown) [Example 213, 3-(3H-Benzoimidazole-5-carbonyl)-8-hydroxy-2,3,4,5-tetrahydro-1H-2,6-methano-benzo[d]azocine-6-carboxylic acid], 2970 nM.

For the origin of these results see US8859580B2 (Boehringer Ingelheim International GmbH, priority 2007, dated 2014).
